# Like-named read-outs stand apart in the source and are kept apart here.
# Columns and labels:
# [1] = test system: A2780 human ovarian carcinoma cell line; assay: MTT antiproliferative assay, A2780; assay type: cell-based; conditions: mean ± SD of three independent experiments, read-out: IC50 (72 h) А2780
# Experimental: (§1) The in vitro antiproliferative activity of the synthesized Ru-organometallic compounds and several starting ligands was evaluated against three human cell lines using the MTT assay. We selected a small panel of cell lines that provided insights into the efficacy and potential therapeutic utility of the compounds. The panel includes the A2780 human ovarian carcinoma cell line, which is sensitive to cisplatin, its cisplatin-resistant counterpart, A2780cis, also a non-malignant human embryonic kidney cell line, HEK293. The use of A2780 and A2780cis paired cell lines allowed us to directly assess the ability of the compounds to overcome resistance mechanisms. The inclusion of the HEK293 cell line can give us preliminary indication of selectivity against non-cancerous cells. Cisplatin, a clinically used drug, was used as a positive control in all experiments. All studies were performed in triplicate and repeated in three independent experiments.
# (§2) The human A2780 ovarian adenocarcinoma, A2780cis cisplatin resistant ovarian adenocarcinoma, HEK293 human embryonic kidney cell lines were obtained from the European collection of authenticated cell cultures (ECACC; Salisbury, UK). Cells were grown in a RPMI 1640 (Gibco™, Cork, Ireland) cell medium (A2780, A2780cis), or DMEM (Gibco™, Ireland) cell medium (HEK293) supplemented with 10% fetal bovine serum (Gibco™, São Paulo, Brazil). The cells were cultured in an incubator at 37 °C in a humidified 5% CO2 atmosphere and were subcultured two times a week. The antiproliferative activity was studied by MTT assays as published previously [38].
# [2] = test system: A2780cis cisplatin resistant ovarian adenocarcinoma; assay: MTT antiproliferative assay, A2780cis; assay type: cell-based, human; conditions: for Rf resistance coefficient: IC50 on A2780cis divided on IC50 on A2780; for IC50: MTT, 72 h incubation, mean ± SD of three independent experiments;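 for all read-outs here: antiproliferative MTT assay with 72 h exposure on cisplatin-resistant A2780cis versus parent A2780 cells, cisplatin as positive control, triplicate wells in each of three independent experiments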
# Experimental: as §1, §2
# [3] = test system: HEK293 human embryonic kidney cell line; assay: MTT antiproliferative assay, HEK293; assay type: cell-based; conditions: for Selectivity Index, SI: IC50 on HEK293 divided on IC50 on A2780; for IC50: MTT, 72 h incubation, mean ± SD of three independent experiments;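 for all read-outs here: cells grown at 37 °C under humidified 5% CO2, cisplatin run alongside as positive control, each test in triplicate wells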
# Experimental: as §1, §2
# [4] = Homo sapiens, A2780, 72 h incubation
"IC50 [1, 4] [nM]","IC50 ([2]; Homo sapiens, A2780cis) [nM]",Structure (SMILES),IC50 ([1]; 72 h incubation) [nM],Rf resistance coefficient [2],"Selectivity Index, SI [3]",IC50 [3] [nM],"IC50 ([3]; Homo sapiens, HEK293) [nM]",IC50 [2] [nM]
,,"N.N.[Cl][Pt][Cl] [Cisplatin, reference compound]",2640 ± 350,5.9,8.3,22000,,
> 200000,> 100000,Fc1ccc(/N=C/c2ccccc2)cc1 [Compound 1b],,,,,21600,
42100,> 100000,CCOC(=O)c1ccc(/N=C/c2ccccc2)cc1 [Compound 1g],,,,,25400,
,,"C1=[N+](c2ccccc2)[Ru-4]23([c]4ccccc41)([n+]1ccccc1-c1cccc[n+]12)[n+]1ccccc1-c1cccc[n+]13.F[P-](F)(F)(F)(F)F [Compound 3a, Bis(2,2′-bipiridine)[N-((phenyl-κC^2)methyliden]aniline-κN]ruthenium(II) hexafluorophosphate]",33 ± 7,0.9,1.6,53 ± 4,,30 ± 10
,,"F[P-](F)(F)(F)(F)F.Fc1ccc([N+]2=Cc3cccc[c]3[Ru-4]234([n+]2ccccc2-c2cccc[n+]23)[n+]2ccccc2-c2cccc[n+]24)cc1 [Compound 3b, Bis(2,2′-bipiridine)[N-((phenyl-κC^2)methyliden]-4-fluoroaniline-κN]ruthenium(II) hexafluorophosphate]",90 ± 30,2.8,1.1,100 ± 30,,250 ± 60
,,"Cc1ccc([N+]2=Cc3cccc[c]3[Ru-4]234([n+]2ccccc2-c2cccc[n+]23)[n+]2ccccc2-c2cccc[n+]24)cc1.F[P-](F)(F)(F)(F)F [Compound 3c, Bis(2,2′-bipiridine)[N-((phenyl-κC^2)methyliden]-4-methylaniline-κN]ruthenium(II) hexafluorophosphate]",70 ± 6,1.7,1.0,70 ± 10,,120 ± 10
,,"CCc1ccc([N+]2=Cc3cccc[c]3[Ru-4]234([n+]2ccccc2-c2cccc[n+]23)[n+]2ccccc2-c2cccc[n+]24)cc1.F[P-](F)(F)(F)(F)F [Compound 3d, Bis(2,2′-bipiridine)[N-((phenyl-κC^2)methyliden]-4-ethylaniline-κN]ruthenium(II) hexafluorophosphate]",45 ± 5,3.3,1.8,80 ± 10,,150 ± 10
,,"CC(C)(C)c1ccc([N+]2=Cc3cccc[c]3[Ru-4]234([n+]2ccccc2-c2cccc[n+]23)[n+]2ccccc2-c2cccc[n+]24)cc1.F[P-](F)(F)(F)(F)F [Compound 3e, Bis(2,2′-bipiridine)[N-((phenyl-κC^2)methyliden]-4-(tert-butyl)aniline-κN]ruthenium(II) hexafluorophosphate]",70 ± 30,2.4,1.0,68 ± 6,,170 ± 30
,,"COc1ccc([N+]2=Cc3cccc[c]3[Ru-4]234([n+]2ccccc2-c2cccc[n+]23)[n+]2ccccc2-c2cccc[n+]24)cc1.F[P-](F)(F)(F)(F)F [Compound 3f, Bis(2,2′-bipiridine)[N-((phenyl-κC^2)methyliden]-4-methoxyaniline-κN]ruthenium(II) hexafluorophosphate]",65 ± 4,1.8,1.0,64 ± 7,,120 ± 40
,,"CCOC(=O)c1ccc([N+]2=Cc3cccc[c]3[Ru-4]234([n+]2ccccc2-c2cccc[n+]23)[n+]2ccccc2-c2cccc[n+]24)cc1.F[P-](F)(F)(F)(F)F [Compound 3g, Bis(2,2′-bipiridine)[N-((phenyl-κC^2)methyliden]-4-ethoxycarbonylaniline-κN]ruthenium(II) hexafluorophosphate]",100 ± 20,2.3,1.4,140 ± 20,,230 ± 20
,,"F[P-](F)(F)(F)(F)F.O=[N+]([O-])c1ccc([N+]2=Cc3cccc[c]3[Ru-4]234([n+]2ccccc2-c2cccc[n+]23)[n+]2ccccc2-c2cccc[n+]24)cc1 [Compound 3h, Bis(2,2′-bipiridine)[N-((phenyl-κC^2)methyliden]-4-nitroaniline-κN]ruthenium(II) hexafluorophosphate]",250 ± 30,3.0,1.5,370 ± 80,,760 ± 80
,,"FC(F)(F)c1ccc([N+]2=Cc3cccc[c]3[Ru-4]234([n+]2ccccc2-c2cccc[n+]23)[n+]2ccccc2-c2cccc[n+]24)cc1.F[P-](F)(F)(F)(F)F [Compound 3i, Bis(2,2′-bipiridine)[N-((phenyl-κC^2)methyliden]-4-(trifluoromethyl)aniline-κN]ruthenium(II) hexafluorophosphate]",80 ± 10,3.0,1.3,107 ± 8,,240 ± 20
,,"F[P-](F)(F)(F)(F)F.Fc1ccc([N+]2=Cc3scc[c]3[Ru-4]234([n+]2ccccc2-c2cccc[n+]23)[n+]2ccccc2-c2cccc[n+]24)cc1 [Compound 3j, Bis(2,2′-bipiridine)[N-((thiophene-2-yl-κC^2)methyliden]-4-fluoroaniline-κN]ruthenium(II) hexafluorophosphate]",43 ± 3,2.1,1.4,60 ± 10,,91 ± 9
,,"Cc1ccc([N+]2=Cc3scc[c]3[Ru-4]234([n+]2ccccc2-c2cccc[n+]23)[n+]2ccccc2-c2cccc[n+]24)cc1.F[P-](F)(F)(F)(F)F [Compound 3k, Bis(2,2′-bipiridine)[N-((thiophene-2-yl-κC^2)methyliden]-4-methylaniline-κN]ruthenium(II) hexafluorophosphate]",30 ± 2,0.3,2.3,70 ± 30,,10 ± 0.4
,,"COc1ccc([N+]2=Cc3scc[c]3[Ru-4]234([n+]2ccccc2-c2cccc[n+]23)[n+]2ccccc2-c2cccc[n+]24)cc1.F[P-](F)(F)(F)(F)F [Compound 3l, Bis(2,2′-bipiridine)[N-((thiophene-2-yl-κC^2)methyliden]-4-methoxyaniline-κN]ruthenium(II) hexafluorophosphate]",39 ± 3,1.0,1.0,40 ± 10,,39 ± 10
,,"CCOC(=O)c1ccc([N+]2=Cc3scc[c]3[Ru-4]234([n+]2ccccc2-c2cccc[n+]23)[n+]2ccccc2-c2cccc[n+]24)cc1.F[P-](F)(F)(F)(F)F [Compound 3m, Bis(2,2′-bipiridine)[N-((thiophene-2-yl-κC^2)methyliden]-4-ethoxycarbonylaniline-κN]ruthenium(II) hexafluorophosphate]",57 ± 20,1.5,2.5,140 ± 10,,84 ± 12
,,"F[P-](F)(F)(F)(F)F.O=[N+]([O-])c1ccc([N+]2=Cc3scc[c]3[Ru-4]234([n+]2ccccc2-c2cccc[n+]23)[n+]2ccccc2-c2cccc[n+]24)cc1 [Compound 3n, Bis(2,2′-bipiridine)[N-((thiophene-2-yl-κC^2)methyliden]-4-nitroaniline-κN]ruthenium(II) hexafluorophosphate]",270 ± 4,3.6,2.0,530 ± 30,,960 ± 100
,,"FC(F)(F)c1ccc([N+]2=Cc3scc[c]3[Ru-4]234([n+]2ccccc2-c2cccc[n+]23)[n+]2ccccc2-c2cccc[n+]24)cc1.F[P-](F)(F)(F)(F)F [Compound 3o, Bis(2,2′-bipiridine)[N-((thiophene-2-yl-κC^2)methyliden]-4-(trifluoromethyl)aniline-κN]ruthenium(II) hexafluorophosphate]",96 ± 3,,1.7,160 ± 30,,150 ± 5

# Source: paper PMC12844335, “Cycloruthenated Imines: A Step into the Nanomolar Region” (Molecules, 2026)
